Assay results reported in US20220282217A1, “COMPOSITIONS AND METHODS FOR PREPARING T CELL COMPOSITIONS AND USES THEREOF” (priority 2019, published 2022).
Read-outs that look alike come from different tables or passages of the source. Where a SMILES comes first, the peptide text is derived from it.

Legend:
[1] = target: T1, HLA-A02.01 (Homo sapiens, UniProt P04439, D140Y/D185E/D98H/E176V/E277Q/G131W/G231S/I119V/I121R/I166T/I218V/N151K/N90K/P208A/P217A/Q86G/Q94H/R138H/R169H); assay: Class I MHC peptide binding stability (pMHC-I dissociation, 125I-labeled light chain); conditions: for Measured stability: HLA Allele A02.01, time for half of the complexes to dissociate at 37° C.; for Stability (T1/2 (h)): allele A02.01
T1 construct: made in house; host or cells: E. coli

[2] = target: HLA-A02.01 (Homo sapiens, UniProt P04439, D140Y/D185E/D98H/E176V/E277Q/G131W/G231S/I119V/I121R/I166T/I218V/L300P/L318F/N151K/N90K/P208A/P217A/Q86G/Q94H/R138H/R169H/T345S); assay: Class I MHC peptide binding affinity (displacement of radiolabeled reference peptide); conditions: for IC50: allele A02.01, (nM))
Procedure, shortened: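 MHC class I complexes were loaded with a radiolabeled reference peptide, then exposed to test peptides over a range of concentrations for 2 days. Reference peptide still bound to the complexes was quantified by size-exclusion gel filtration.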

[3] = read-out: Observed Affinity (IC50

Row | Compound | Stability (T1/2 (h)) [1] [h] | IC50 [2, 3] [nM] | other results
1 | CC(C)C[C@H](N)C(=O)N[C@H](C(=O)N[C@H](C(=O)N[C@H](C(=O)NCC(=O)N[C@@H](C)C(=O)N[C@H](C(=O)NCC(=O)N[C@H](C(=O)O)C(C)C)C(C)C)C(C)C)C(C)C)C(C)C | 0.6 | – | Measured stability [1]: 0.6 h
2 | CSCC[C@H](NC(=O)[C@@H](NC(=O)[C@H](Cc1ccc(O)cc1)NC(=O)[C@H](C)NC(=O)[C@H](CCSC)NC(=O)[C@@H](NC(=O)[C@@H](N)Cc1ccc(O)cc1)C(C)C)C(C)C)C(=O)N[C@@H](C)C(=O)NCC(=O)N[C@H](C(=O)O)C(C)C | 20.9 | 57 | –
3 | CSCC[C@H](NC(=O)[C@H](CCC(=O)O)NC(=O)[C@H](CC(C)C)NC(=O)[C@H](CC(C)C)NC(=O)[C@H](CC(C)C)NC(=O)[C@H](CC(=O)O)NC(=O)[C@H](CS)NC(=O)[C@H](CC(C)C)NC(=O)[C@@H]1CCCN1)C(=O)N[C@@H](CC(C)C)C(=O)O (H-PLCDLLLEML-OH; N-terminus and C-terminus assumed) | 0.9 | 2010 | –
4 | CSCC[C@H](NC(=O)[C@H](CCC(=O)O)NC(=O)[C@H](CC(C)C)NC(=O)[C@H](CC(C)C)NC(=O)[C@H](CC(C)C)NC(=O)[C@H](CC(=O)O)NC(=O)[C@H](CO)NC(=O)[C@H](CC(C)C)NC(=O)[C@@H]1CCCN1)C(=O)O (H-PLSDLLLEM-OH; N-terminus and C-terminus assumed) | 2.7 | 404 | –
5 | CC[C@H](C)[C@H](NC(=O)[C@@H](N)CC(C)C)C(=O)N[C@@H](CCSC)C(=O)N[C@@H](CCC(N)=O)C(=O)N[C@@H](CC(C)C)C(=O)N[C@@H](CCSC)C(=O)N1CCC[C@H]1C(=O)N[C@@H](Cc1ccccc1)C(=O)NCC(=O)N[C@@H](CS)C(=O)O | 0.4 | 177 | Stability (half-life (hr.)) ([1]; EGFR T790M peptides, HLA allele A02.01): 0.3813 h; Kd ([2]; EGFR T790M peptides, HLA allele A02.01, read-out: Affinity): 132 nM
6 | CC(C)C[C@H](NC(=O)[C@@H](NC(=O)[C@H](CC(=O)O)NC(=O)[C@H](CC(C)C)NC(=O)[C@@H](NC(=O)[C@@H](N)Cc1ccc(O)cc1)[C@@H](C)O)C(C)C)C(=O)N[C@@H](CCC(=O)O)C(=O)N[C@@H](CCCNC(=N)N)C(=O)N[C@@H](CS)C(=O)O | 6.6 | 1760 | –
7 | CC[C@H](C)[C@H](NC(=O)[C@@H](N)C(C)C)C(=O)N[C@H](C(=O)N[C@@H](CCC(=O)O)C(=O)N[C@@H](Cc1ccc(O)cc1)C(=O)N[C@@H](CS)C(=O)N[C@@H](CS)C(=O)N[C@@H](Cc1ccc(O)cc1)C(=O)NCC(=O)O)[C@@H](C)CC (H-VIIEYCCYG-OH; N-terminus and C-terminus assumed) | 0.5 | – | –
8 | CC[C@H](C)[C@H](NC(=O)[C@H](Cc1ccc(O)cc1)NC(=O)[C@H](CC(C)C)NC(=O)[C@@H](N)CO)C(=O)N[C@H](C(=O)NCC(=O)N[C@@H](Cc1ccccc1)C(=O)N[C@@H](Cc1ccc(O)cc1)C(=O)NCC(=O)N[C@@H](C)C(=O)O)C(C)C (H-SLYIVGFYGA-OH; N-terminus and C-terminus assumed) | 0.4 | 390 | –
9 | CSCC[C@H](NC(=O)[C@H](CCC(=O)O)NC(=O)[C@H](CC(C)C)NC(=O)[C@H](CC(C)C)NC(=O)[C@H](CC(C)C)NC(=O)[C@H](CC(=O)O)NC(=O)[C@H](CC(N)=O)NC(=O)[C@H](CC(C)C)NC(=O)[C@@H]1CCCN1)C(=O)O (H-PLNDLLLEM-OH; N-terminus and C-terminus assumed) | 4.2 | 151 | –
10 | CC[C@H](C)[C@H](NC(=O)[C@H](Cc1ccc(O)cc1)NC(=O)[C@@H]1CCCN1C(=O)[C@H](CO)NC(=O)[C@H](CC(N)=O)NC(=O)[C@H](CO)NC(=O)[C@H](CCC(=O)O)NC(=O)[C@H](Cc1c[nH]cn1)NC(=O)[C@H](CC(C)C)NC(=O)[C@@H](N)C(C)C)C(=O)O (H-VLHESNSPYI-OH; N-terminus and C-terminus assumed) | 1.9 | 131 | –
11 | CC[C@H](C)[C@H](NC(=O)[C@H](Cc1ccc(O)cc1)NC(=O)[C@H](CC(C)C)NC(=O)[C@@H](N)CC(C)C)C(=O)N[C@H](C(=O)N[C@@H](C)C(=O)N[C@@H](Cc1ccccc1)C(=O)N[C@@H](Cc1ccccc1)C(=O)N[C@@H](CC(C)C)C(=O)O)[C@@H](C)O | 17 | 713 | –
12 | CC(C)C[C@H](NC(=O)[C@H](CO)NC(=O)[C@H](CS)NC(=O)[C@H](CCC(=O)O)NC(=O)[C@H](Cc1c[nH]c2ccccc12)NC(=O)[C@H](CC(C)C)NC(=O)[C@H](C)NC(=O)[C@H](CC(C)C)NC(=O)[C@H](CC(C)C)NC(=O)[C@@H](N)Cc1ccccc1)C(=O)O | 10.8 | – | –
13 | CC(C)C[C@H](NC(=O)[C@H](CO)NC(=O)[C@H](CS)NC(=O)[C@H](CCC(=O)O)NC(=O)[C@H](Cc1c[nH]c2ccccc12)NC(=O)[C@H](CC(C)C)NC(=O)[C@H](C)NC(=O)[C@H](CC(C)C)NC(=O)[C@@H](N)CC(C)C)C(=O)O | 4 | – | –
14 | CC[C@H](C)[C@H](N)C(=O)N[C@H](C(=O)N[C@H](C(=O)N[C@@H](CCC(=O)O)C(=O)N[C@@H](Cc1ccc(O)cc1)C(=O)N[C@@H](CS)C(=O)N[C@@H](Cc1ccccc1)C(=O)N[C@@H](Cc1ccc(O)cc1)C(=O)NCC(=O)O)[C@@H](C)CC)[C@@H](C)CC (H-IIIEYCFYG-OH; N-terminus and C-terminus assumed) | 1.2 | – | –
15 | CSCC[C@H](NC(=O)[C@H](CCC(N)=O)NC(=O)[C@H](CC(C)C)NC(=O)[C@@H](NC(=O)[C@@H](N)CCCCN)C(C)C)C(=O)N[C@@H](CC(=O)O)C(=O)N[C@@H](Cc1ccccc1)C(=O)N[C@@H](CC(C)C)C(=O)N[C@H](C(=O)O)C(C)C (H-KVLQMDFLV-OH; N-terminus and C-terminus assumed) | 6.4 | – | –
16 | CSCC[C@H](NC(=O)[C@H](CS)NC(=O)[C@H](CO)NC(=O)[C@H](CO)NC(=O)[C@H](CC(N)=O)NC(=O)[C@H](CS)NC(=O)[C@H](CCSC)NC(=O)[C@@H](N)Cc1ccc(O)cc1)C(=O)NCC(=O)N[C@@H](CO)C(=O)O (H-YMCNSSCMGS-OH; N-terminus and C-terminus assumed) | 0.8 | – | –
17 | CC(C)C[C@H](NC(=O)[C@@H](N)CCCCN)C(=O)N[C@H](C(=O)N[C@H](C(=O)N[C@H](C(=O)NCC(=O)N[C@@H](C)C(=O)N[C@@H](CC(=O)O)C(=O)NCC(=O)N[C@H](C(=O)O)C(C)C)C(C)C)C(C)C)C(C)C | 0.9 | – | Measured stability [1]: 0.9 h
18 | CC[C@H](C)[C@H](NC(=O)[C@@H](NC(=O)[C@H](CO)NC(=O)[C@H](Cc1ccccc1)NC(=O)[C@H](Cc1ccccc1)NC(=O)[C@@H](N)Cc1ccccc1)C(C)C)C(=O)N[C@@H](Cc1ccccc1)C(=O)N[C@@H](CO)C(=O)N[C@H](C(=O)O)[C@@H](C)O (H-FFFSVIFST-OH; N-terminus and C-terminus assumed) | – | 4560 | –
19 | CC[C@H](C)[C@H](NC(=O)[C@@H]1CCCN1C(=O)[C@H](CC(C)C)NC(=O)[C@H](CC(C)C)NC(=O)[C@H](CCC(=O)O)NC(=O)[C@@H](N)Cc1ccccc1)C(=O)N1CCC[C@H]1C(=O)N1CCC[C@H]1C(=O)N[C@@H](CC(C)C)C(=O)O (H-FELLPIPPL-OH; N-terminus and C-terminus assumed) | – | – | IC50 ([2]; Observed Affinity (IC50): 553 nM
20 | CC(C)[C@H](NC(=O)[C@H](CO)NC(=O)[C@H](CS)NC(=O)[C@H](CO)NC(=O)[C@H](CCCCN)NC(=O)[C@@H](NC(=O)[C@H](CCC(=O)O)NC(=O)[C@H](Cc1ccccc1)NC(=O)[C@H](Cc1ccccc1)NC(=O)[C@@H](N)Cc1ccccc1)[C@@H](C)O)C(=O)O (H-FFFETKSCSV-OH; N-terminus and C-terminus assumed) | – | 61.2 | –
21 | CC[C@H](C)[C@H](NC(=O)[C@H](Cc1ccc(O)cc1)NC(=O)[C@H](CCC(=O)O)NC(=O)CNC(=O)[C@H](CO)NC(=O)[C@H](Cc1ccccc1)NC(=O)[C@H](C)N)C(=O)N1CCC[C@H]1C(=O)N[C@H](C(=O)N[C@H](C(=O)O)C(C)C)[C@@H](C)O (H-AFSGEYIPTV-OH; N-terminus and C-terminus assumed) | – | 781 | –
22 | CSCC[C@H](NC(=O)[C@H](CCCCN)NC(=O)CNC(=O)[C@H](CC(N)=O)NC(=O)[C@H](CCC(N)=O)NC(=O)[C@@H](N)Cc1ccccc1)C(=O)N[C@@H](C)C(=O)N[C@@H](CC(C)C)C(=O)N[C@@H](CO)C(=O)O [FQNGKMALS] (H-FQNGKMALS-OH; N-terminus and C-terminus assumed) | – | 3280 | –
23 | CC[C@H](C)[C@H](N)C(=O)N[C@@H](CCC(N)=O)C(=O)N[C@@H](CC(C)C)C(=O)N[C@@H](CCC(N)=O)C(=O)N[C@@H](CC(=O)O)C(=O)N[C@@H](CCCCN)C(=O)N[C@@H](Cc1ccccc1)C(=O)N[C@@H](CCC(=O)O)C(=O)N[C@@H](Cc1c[nH]cn1)C(=O)N[C@@H](CC(C)C)C(=O)O | – | 4270 | –
24 | CC(C)C[C@H](NC(=O)CNC(=O)[C@H](Cc1c[nH]c2ccccc12)NC(=O)[C@H](CC(=O)O)NC(=O)[C@H](CCCCN)NC(=O)CNC(=O)[C@H](CCC(N)=O)NC(=O)[C@@H](NC(=O)[C@@H](N)Cc1ccccc1)C(C)C)C(=O)O | – | 34 | –
25 | CC[C@H](C)[C@H](NC(=O)[C@H](CC(=O)O)NC(=O)[C@H](CC(C)C)NC(=O)[C@H](CC(C)C)NC(=O)[C@H](Cc1ccccc1)NC(=O)[C@H](Cc1ccccc1)NC(=O)[C@H](C)NC(=O)[C@@H](NC(=O)[C@@H](NC(=O)[C@@H](N)Cc1ccc(O)cc1)[C@@H](C)CC)[C@@H](C)O)C(=O)O (H-YITAFFLLDI-OH; N-terminus and C-terminus assumed) | – | 64.5 | –
